Tests used:
[1] = test system: NRAS^G12A-mutated AML; format: in vivo; conditions: person, trametinib 2 mg/d, hydroxycarbamide 2000 mg daily
[2] = test system: RAS pathway activated TF-1, Ba/F3 and UT-7 cells; assay: Trametinib dose-range cytotoxicity in RAS pathway activated cell lines; format: cell-based, human; murine; conditions: three fold-dilutions dose-range
Method: UptiBlue: Cells were seeded in 100 μl of culture medium for 48 hours. […] The UptiBlue viable cell-counting reagent (Interchim, Montluçon, France) was then added for 4 hours and fluorescence was measured with a Typhoon 8600 scanner (GE Healthcare BioSciences, Buc, France).

| SMILES | white blood cell count / leukocytosis ([1]; second course) | toxicity in patient [1] | cytotoxicity in RAS activated cells compared to isogenic control cells [2] |
| --- | --- | --- | --- |
| NC(=O)NO [hydroxycarbamide] | limited efficacy | hematological toxicity |  |
| CC(=O)Nc1cccc(-n2c(=O)n(C3CC3)c(=O)c3c(Nc4ccc(I)cc4F)n(C)c(=O)c(C)c32)c1 [trametinib] |  | neurological toxicity | marked enhancement of trametinib cytotoxicity |
